Measured values taken from patent publication US20030119716A1, “Methods for screening, treating and diagnosing G-protein coupled receptor-related disorders and compositions thereof” (Wyeth, priority 2001, published 2003).
Entries after “also recorded” stand apart in the source; their conditions may differ. Where two headings read alike, the source gives them in different places.

Legend:
[1] = test system: c-fos SRE activation in CHO cells stably expressing D2R; assay: SRE-luciferase reporter assay, quinpirole-stimulated c-fos SRE activation in CHO-D2R cells; assay type: cell-based, Chinese hamster
[2] = test system: Erk1/2 phosphorylation; assay: Western blot of phospho-Erk1/2 in CHO-D2R cells; assay type: cell-based, Chinese hamster; details: 25 nM PD098059, 30 minutes before 100 nM quinpirole, 5 min
Procedure: Cell lysates were prepared by incubating cells for 5 minutes on ice with a lysis buffer containing […] NaCl, 50 mM Tris, pH 7.5, 5 mM EDTA, 1% Triton, and a mixture of protease inhibitors. Cells were then scraped off plates and sonicated. The detergent-insoluble material was removed by microcentrifugation for 10 minutes at 4° C. An equal amount of protein was run on SDS gels (Novex, Carlsbad, Calif.) and transferred to nitrocellulose (Bio-Rad, Hercules, Calif.). […] The membrane was washed, incubated for 1 hour in TBS containing appropriate HRP-conjugated secondary antibodies, washed again, and developed with the ECL reagent (Amersham Pharmacia Biotech, Piscataway, N.J.).

[3] = transfection of dominant-negative Rho family mutant or C3 (3 μg), 100 nM quinpirole

`COc1cccc(-c2cc(=O)c3ccccc3o2)c1N` [PD098059, reference compound] was tested, and the “effect on quinpirole-stimulated SRE activation” value ([1]; 25 nM PD098059, 100 nM quinpirole) was “only partially suppressed; also recorded: inhibited”, the “diminution of quinpirole-stimulated SRE activity” value ([1]; 25 nM PD098059, 100 nM quinpirole, compared to vehicle) was “about 50%” and the “effect on quinpirole-stimulated Erk1/2 phosphorylation” value [2] was “completely suppressed; also recorded: inhibited”.

In the case of `COC[C@H]1OC(=O)c2coc3c2[C@@]1(C)C1=C(C3=O)[C@@H]2CCC(=O)[C@@]2(C)C[C@H]1OC(C)=O` [wortmannin, reference compound], the “effect on quinpirole-stimulated SRE activation” value ([1]; 50 nM wortmannin, 100 nM quinpirole) is reported as “no effect”.

“CdcN17: dominant-negative mutant of Cdc42, Thr17 substituted with Asn” was tested, and the “effect on quinpirole-stimulated SRE activation” value [1, 3] was “suppressed”.

In the case of “RhoN19: dominant-negative mutant of RhoA, Thr19 substituted with Asn”, the “effect on quinpirole-stimulated SRE activation” value [1, 3] is reported as “suppressed”.

pertussis toxin [reference compound] was tested, and the “effect on quinpirole-stimulated SRE activation” value [1] was “completely abolished; also recorded: abrogated”.
